Molecules are shown by their SMILES.

Compound `C[C@H](NC(=O)c1c(CN2CCN(C(=O)c3ccc(C(=O)O)cc3)CC2)c(-c2ccccc2)nc2ccccc12)C1CCCCC1` [Example 15, 4-(1-{4-[4-((S)-1-Cyclohexyl-ethylcarbamoyl)-2-phenyl-quinolin-3-ylmethyl]-piperazin-1-yl}-methanoyl)-benzoic acid] showed a melting point of 185 to 188 °C. As to `C[C@H](NC(=O)c1c(CN2CCN(C(=O)CCN3CCCCC3)CC2)c(-c2ccccc2)nc2ccccc12)C1CCCCC1` [Example 24, 2-Phenyl-3-[4-(3-piperidin-1-yl-propanoyl)-piperazin-1-ylmethyl]-quinoline-4-carboxylic acid ((S)-1-cyclohexyl-ethyl)-amide], the melting point lay in the range of 120 to 122 °C.

`C[C@H](NC(=O)c1c(CN2CCN(C(=O)CCN)CC2)c(-c2ccccc2)nc2ccccc12)C1CCCCC1` [Example 21, 3-[4-(3-Amino-propanoyl)-piperazin-1-ylmethyl]-2-phenyl-quinoline-4-carboxylic acid ((S)-1-cyclohexyl-ethyl)-amide] registered a melting point of 164 to 166 °C. Regarding `CCNCCC(=O)N1CCN(Cc2c(-c3ccccc3)nc3ccccc3c2C(=O)N[C@@H](C)C2CCCCC2)CC1` [Example 22, 3-[4-(3-Ethylamino-propanoyl)-piperazin-1-ylmethyl]-2-phenyl-quinoline-4-carboxylic acid ((S)-1-cyclohexyl-ethyl)-amide], the melting point came to 125 °C. For `CCOC(=O)C(C(=O)N1CCN(Cc2c(-c3ccccc3)nc3ccccc3c2C(=O)N[C@@H](C)C2CCCCC2)CC1)c1ccccc1` (stereo partly drawn) [Example 16, 3-{4-[4-((S)-1-Cyclohexyl-ethylcarbamoyl)-2-phenyl-quinolin-3-ylmethyl]-piperazin-1-yl}-3-oxo-2-phenyl-propionic acid ethyl ester] the value was 125 to 129 °C; for `C[C@H](NC(=O)c1c(CN2CCN(C(=O)c3nccnc3C(=O)O)CC2)c(-c2ccccc2)nc2ccccc12)C1CCCCC1` [Example 12, 3-(1-{4-[4-((S)-1-Cyclohexyl-ethylcarbamoyl)-2-phenyl-quinolin-3-ylmethyl]-piperazin-1-yl}-methanoyl)-pyrazine-2-carboxylic acid], 162 to 165 °C. As for `C[C@H](NC(=O)c1c(CN2CCN(C(=O)CCCC(=O)O)CC2)c(-c2ccccc2)nc2ccccc12)C1CCCCC1` [Example 11, 5-{4-[4-((S)-1-Cyclohexyl-ethylcarbamoyl)-2-phenyl-quinolin-3-ylmethyl]-piperazin-1-yl}-5-oxo-pentanoic acid], the melting point lay in the range of 125 to 130 °C. In the case of `C[C@H](NC(=O)c1c(CN2CCN(C(=O)c3cccc(C(=O)O)c3)CC2)c(-c2ccccc2)nc2ccccc12)C1CCCCC1` [Example 13, 3-(1-{4-[4-((S)-1-Cyclohexyl-ethylcarbamoyl)-2-phenyl-quinolin-3-ylmethyl]-piperazin-1-yl}-methanoyl)-benzoic acid], the melting point lay in the range of 179 to 180 °C.

In the case of `C[C@H](NC(=O)c1c(CN2CCN(C(=O)c3cncc(C(=O)O)c3)CC2)c(-c2ccccc2)nc2ccccc12)C1CCCCC1` [Example 14, 5-(1-{4-[4-((S)-1-Cyclohexyl-ethylcarbamoyl)-2-phenyl-quinolin-3-ylmethyl]-piperazin-1-yl}-methanoyl)-nicotinic acid], the melting point is 250 to 255 °C (dec.). As for `C[C@H](NC(=O)c1c(CN2CCN(C(=O)/C=C/C(=O)O)CC2)c(-c2ccccc2)nc2ccccc12)c1ccccc1` [Example 9, (E)-4-Oxo-4-{4-[2-phenyl-4-((S)-1-phenyl-ethylcarbamoyl)-quinolin-3-ylmethyl]-piperazin-1-yl}-but-2-enoic acid], the melting point was 214 to 215 °C.

`C[C@H](NC(=O)c1c(CN2CCN(C=O)CC2)c(-c2ccccc2)nc2ccccc12)C1CCCCC1` [Example 18, 3-(4-Formyl-piperazin-1-ylmethyl)-2-phenyl-quinoline-4-carboxylic acid ((S)-1-cyclohexyl-ethyl)-amide] yielded a melting point of 116 to 119 °C. For `C[C@H](NC(=O)c1c(CN2CCN(C(=O)[C@@H]3C[C@H]3C(=O)O)CC2)c(-c2ccccc2)nc2ccccc12)c1ccccc1` (mixture of isomers) [Example 7, Trans 2-(1-{4-[2-Phenyl-4-((S)-1-phenyl-ethylcarbamoyl)-quinolin-3-ylmethyl]-piperazin-1-yl}-methanoyl)-cyclopropanecarboxylic acid] the value was 135 to 145 °C; for `C[C@H](NC(=O)c1c(CN2CCN(C(=O)CC(C)(C)CC(=O)O)CC2)c(-c2ccccc2)nc2ccccc12)c1ccccc1` [Example 6, 3,3-Dimethyl-5-oxo-5-{4-[2-phenyl-4-((S)-1-phenyl-ethylcarbamoyl)-quinolin-3-ylmethyl]-piperazin-1-yl}-pentanoic acid], 213 to 215 °C. The same measure for `C[C@H](NC(=O)c1c(CN2CCN(C(=O)CC(=O)O)CC2)c(-c2ccccc2)nc2ccccc12)C1CCCCC1` [Example 10, 3-{4-[4-((S)-1-Cyclohexyl-ethylcarbamoyl)-2-phenyl-quinolin-3-ylmethyl]-piperazin-1-yl}-3-oxo-propionic acid]: 150 to 155 °C; for `C[C@H](NC(=O)c1c(CN2CCN(C(=O)[C@H]3CCCC[C@H]3C(=O)O)CC2)c(-c2ccccc2)nc2ccccc12)c1ccccc1` (mixture of isomers) [Example 8, Cis 2-(1-{4-[2-Phenyl-4-((S)-1-phenyl-ethylcarbamoyl)-quinolin-3-ylmethyl]-piperazin-1-yl}-methanoyl)-cyclohexanecarboxylic acid]: 130 to 140 °C.

The values above are taken from patent US20040082589A1, “Quinoline derivatives as nk-3 and nk-2 antagonists” (priority 2000, published 2004).
